Activity calls are given as the source filed them. The rule behind the calls is not given here.
Key:
[1] = Drug distribution in SCID mouse spleen at 1 mg/kg, po measured at 6 hrs by LC-MS/MS analysis; assay type: ADME, organism-based; settings: read-out: Ct
[2] = Toxicity in SCID mouse xenografted with human 22Rv1 cells assessed as loss of body weight at 0.3 to 3 mg/kg, po administered upto 3 weeks; assay type: organism-based, CWR22R; settings: in vivo, 504 h, dose 0.3-3 mg/kg
VCaP [3] = assay: Antitumor activity against human VCaP cells xenografted in SCID mouse assessed as tumor regression at 1 mg/kg, po administered 3 times a week for 4 weeks; assay type: functional
[4] = Drug distribution in SCID mouse liver at 1 mg/kg, po measured at 1 hr by LC-MS/MS analysis; assay type: ADME, organism-based; settings: read-out: Ct
[5] = Drug distribution in SCID mouse tumor at 0.3 mg/kg, po measured at 1 hr by LC-MS/MS analysis; assay type: ADME, organism-based, Neoplasm; settings: read-out: Ct
[6] = Drug distribution in Sprague-Dawley rat heart at 3 mg/kg, po measured at 6 hrs by LC-MS/MS analysis; assay type: ADME, organism-based; settings: read-out: Ct
[7] = Drug distribution in Sprague-Dawley rat spleen at 10 mg/kg, po measured at 6 hrs by LC-MS/MS analysis; assay type: ADME, organism-based; settings: read-out: Ct
CWR22R [8] = assay: Antitumor activity against human 22Rv1 cells xenografted in SCID mouse assessed as reduction in BRD3 level in tumor at 1 to 3 mg/kg, po measured at 6 to 24 hrs by Western blotting analysis; assay type: functional, organism-based; settings: dose 1-3 mg/kg, time 6-24 hrs
[9] = AUC in ICR mouse at 3 mg/kg, po measured upto 24 hrs by LC/MS-MS analysis; assay type: ADME, organism-based; settings: in vivo
[10] = Metabolic stability in monkey plasma assessed as half life measured upto 120 mins by LC-MS/MS analysis; assay type: ADME, cell-free, Macaca mulatta; settings: rhesus monkey
[11] = biological target: Protein cereblon/Histone lysine acetyltransferase CREBBP (Rattus norvegicus, UniProt Q56AP7+Q6JHU9); assay: PROTAC activity at CBP/CRBN in rat RG2 cells assessed as induction of CBP degradation; assay type: cell-based
Protein cereblon/Histone lysine acetyltransferase CREBBP, sequence (Q56AP7 whole entry): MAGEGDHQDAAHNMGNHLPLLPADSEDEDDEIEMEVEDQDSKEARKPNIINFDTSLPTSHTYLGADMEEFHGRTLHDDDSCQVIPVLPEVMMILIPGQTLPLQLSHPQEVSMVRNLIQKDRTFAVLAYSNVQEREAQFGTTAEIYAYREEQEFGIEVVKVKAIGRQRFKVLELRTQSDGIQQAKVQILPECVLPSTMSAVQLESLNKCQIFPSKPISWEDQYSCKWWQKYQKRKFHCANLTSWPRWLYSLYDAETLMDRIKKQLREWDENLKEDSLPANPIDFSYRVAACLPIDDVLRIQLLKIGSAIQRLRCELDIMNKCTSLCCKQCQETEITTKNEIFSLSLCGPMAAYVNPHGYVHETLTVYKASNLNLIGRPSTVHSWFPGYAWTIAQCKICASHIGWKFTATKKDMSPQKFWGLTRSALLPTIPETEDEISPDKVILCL
Protein cereblon/Histone lysine acetyltransferase CREBBP, sequence (Q6JHU9 whole entry): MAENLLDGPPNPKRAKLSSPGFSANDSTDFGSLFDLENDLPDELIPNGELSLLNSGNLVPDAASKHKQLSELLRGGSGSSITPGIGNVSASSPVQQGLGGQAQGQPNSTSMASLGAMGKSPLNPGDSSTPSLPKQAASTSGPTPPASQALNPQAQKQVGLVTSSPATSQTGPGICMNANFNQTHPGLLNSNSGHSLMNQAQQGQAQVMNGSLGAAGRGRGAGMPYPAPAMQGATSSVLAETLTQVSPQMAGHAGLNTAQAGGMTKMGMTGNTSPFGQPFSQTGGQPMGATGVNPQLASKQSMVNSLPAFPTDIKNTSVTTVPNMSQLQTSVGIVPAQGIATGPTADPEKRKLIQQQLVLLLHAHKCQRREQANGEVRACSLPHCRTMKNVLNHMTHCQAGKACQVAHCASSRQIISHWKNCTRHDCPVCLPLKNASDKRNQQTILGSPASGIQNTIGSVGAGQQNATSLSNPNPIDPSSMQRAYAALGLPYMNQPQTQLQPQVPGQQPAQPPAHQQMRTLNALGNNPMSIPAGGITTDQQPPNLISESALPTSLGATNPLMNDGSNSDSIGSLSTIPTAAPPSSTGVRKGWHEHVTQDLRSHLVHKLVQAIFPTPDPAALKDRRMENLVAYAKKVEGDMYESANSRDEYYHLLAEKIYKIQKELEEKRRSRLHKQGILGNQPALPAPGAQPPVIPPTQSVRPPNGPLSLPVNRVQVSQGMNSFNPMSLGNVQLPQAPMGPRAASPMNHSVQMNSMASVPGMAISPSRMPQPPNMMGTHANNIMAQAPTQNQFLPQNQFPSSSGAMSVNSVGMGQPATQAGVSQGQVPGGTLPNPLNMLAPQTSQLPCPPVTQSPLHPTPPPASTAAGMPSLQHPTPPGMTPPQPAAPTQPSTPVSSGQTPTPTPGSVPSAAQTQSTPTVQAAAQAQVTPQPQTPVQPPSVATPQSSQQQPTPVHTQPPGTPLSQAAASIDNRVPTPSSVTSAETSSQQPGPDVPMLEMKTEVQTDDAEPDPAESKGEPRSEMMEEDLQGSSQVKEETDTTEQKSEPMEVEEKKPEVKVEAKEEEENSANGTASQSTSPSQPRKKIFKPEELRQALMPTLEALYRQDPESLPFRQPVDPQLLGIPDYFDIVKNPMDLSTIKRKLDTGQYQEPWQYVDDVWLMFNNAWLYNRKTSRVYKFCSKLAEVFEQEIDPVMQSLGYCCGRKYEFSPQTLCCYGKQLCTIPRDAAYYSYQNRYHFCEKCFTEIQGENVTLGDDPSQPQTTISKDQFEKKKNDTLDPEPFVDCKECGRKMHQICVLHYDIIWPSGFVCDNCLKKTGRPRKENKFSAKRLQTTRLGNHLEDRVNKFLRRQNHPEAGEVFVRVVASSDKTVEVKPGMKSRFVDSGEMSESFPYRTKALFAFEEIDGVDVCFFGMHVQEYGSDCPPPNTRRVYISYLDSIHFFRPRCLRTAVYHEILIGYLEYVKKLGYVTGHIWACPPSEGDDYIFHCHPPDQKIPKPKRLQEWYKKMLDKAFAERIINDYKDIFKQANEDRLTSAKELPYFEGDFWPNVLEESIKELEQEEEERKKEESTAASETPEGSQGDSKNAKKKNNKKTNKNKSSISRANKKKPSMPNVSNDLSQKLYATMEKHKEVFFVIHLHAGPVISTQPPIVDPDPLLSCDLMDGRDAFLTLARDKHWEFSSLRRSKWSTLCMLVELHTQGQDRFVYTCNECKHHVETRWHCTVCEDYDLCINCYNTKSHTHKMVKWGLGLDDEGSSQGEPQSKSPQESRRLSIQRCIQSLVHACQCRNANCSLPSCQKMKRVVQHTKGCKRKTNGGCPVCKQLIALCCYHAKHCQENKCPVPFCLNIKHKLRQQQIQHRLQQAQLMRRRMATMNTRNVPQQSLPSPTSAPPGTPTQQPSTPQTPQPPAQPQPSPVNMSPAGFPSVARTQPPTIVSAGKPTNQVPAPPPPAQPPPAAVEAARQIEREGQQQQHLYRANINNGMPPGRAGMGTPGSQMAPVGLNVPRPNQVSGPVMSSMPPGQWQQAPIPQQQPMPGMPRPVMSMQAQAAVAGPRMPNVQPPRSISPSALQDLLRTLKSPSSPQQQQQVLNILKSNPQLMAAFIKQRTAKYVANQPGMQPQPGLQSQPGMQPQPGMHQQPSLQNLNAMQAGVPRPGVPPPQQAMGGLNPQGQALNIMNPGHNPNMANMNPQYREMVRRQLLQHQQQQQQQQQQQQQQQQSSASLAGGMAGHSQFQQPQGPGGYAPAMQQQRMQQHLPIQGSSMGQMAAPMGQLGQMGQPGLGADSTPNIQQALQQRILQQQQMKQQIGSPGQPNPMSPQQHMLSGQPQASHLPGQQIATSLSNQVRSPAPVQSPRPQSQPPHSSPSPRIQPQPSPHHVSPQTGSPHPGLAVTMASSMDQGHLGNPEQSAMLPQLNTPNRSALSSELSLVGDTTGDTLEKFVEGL

[12] = Toxicity in immune-competent Sprague-Dawley rat assessed as change in blood urea nitrogen level at 1 to 10 mg/kg, po administered twice a week for 5 weeks; assay type: organism-based; settings: in vivo, 840 h, dose 1-10 mg/kg
[13] = Drug distribution in SCID mouse liver at 3 mg/kg, po measured at 24 hrs by LC-MS/MS analysis; assay type: ADME, organism-based; settings: read-out: Ct
[14] = Drug distribution in SCID mouse spleen at 0.3 mg/kg, po measured at 6 hrs by LC-MS/MS analysis; assay type: ADME, organism-based; settings: read-out: Ct
[15] = Chemical stability of the compound assessed as parent compound remaining measured at 3 hrs; assay type: physicochemical
[16] = Drug distribution in SCID mouse plasma at 3 mg/kg, po measured at 24 hrs by LC-MS/MS analysis; assay type: ADME, organism-based
[17] = Drug distribution in Sprague-Dawley rat heart at 3 mg/kg, po measured at 1 hr by LC-MS/MS analysis; assay type: ADME, organism-based; settings: read-out: Ct
[18] = Drug distribution in SCID mouse liver at 1 mg/kg, po measured at 24 hrs by LC-MS/MS analysis; assay type: ADME, organism-based; settings: read-out: Ct
[19] = Chemical stability of the compound assessed as parent compound remaining measured at 7 hrs; assay type: physicochemical; settings: read-out: Stability
[20] = Drug distribution in Sprague-Dawley rat spleen at 10 mg/kg, po measured at 1 hr by LC-MS/MS analysis; assay type: ADME, organism-based; settings: read-out: Ct
VCaP [21] = assay: Antitumor activity against human VCaP cells xenografted in SCID mouse assessed as tumor growth inhibition at 3 mg/kg, po administered for 4 week; assay type: functional; settings: 672 h, time 4 weeks, read-out: TGI
[22] = Plasma protein binding in monkey by LC-MS analysis; assay type: ADME, cell-free, Macaca mulatta; settings: rhesus monkey, read-out: PPB (converted)
CWR22R [23] = assay: Antitumor activity against human 22Rv1 cells xenografted in SCID mouse assessed as reduction in BRD4 level in tumor at 1 to 3 mg/kg, po measured at 6 to 24 hrs by Western blotting analysis; assay type: functional, organism-based; settings: dose 1-3 mg/kg, time 6-24 hrs
[24] = Toxicity in SCID mouse xenografted with human VCaP cells assessed as loss of body weight at 1 to 3 mg/kg, po measured up to 48 days; assay type: organism-based; settings: in vivo, 1152 h, dose 1-3 mg/kg, time < 48 day
[25] = Half life in Sprague-Dawley rat at 1 mg/kg, iv measured upto 24 hrs by LC/MS-MS analysis; assay type: ADME, organism-based; settings: in vivo
[26] = Drug distribution in SCID mouse liver at 3 mg/kg, po measured at 1 hr by LC-MS/MS analysis; assay type: ADME, organism-based; settings: read-out: Ct
VCaP [27] = assay: Antitumor activity against human VCaP cells xenografted in SCID mouse assessed as tumor growth inhibition at 0.3 mg/kg, po administered daily 5 times a week for 4 weeks; assay type: functional; settings: 672 h, read-out: TGI
[28] = Drug distribution in Sprague-Dawley rat kidney at 3 mg/kg, po measured at 24 hrs by LC-MS/MS analysis; assay type: ADME, organism-based; settings: read-out: Ct
[29] = Toxicity in immune-competent Sprague-Dawley rat assessed as change in albumin level at 1 to 10 mg/kg, po administered twice a week for 5 weeks; assay type: organism-based; settings: in vivo, 840 h, dose 1-10 mg/kg
[30] = Clearance in Sprague-Dawley rat at 1 mg/kg, iv measured upto 24 hrs by LC/MS-MS analysis; assay type: ADME, organism-based; settings: in vivo
[31] = Drug distribution in Sprague-Dawley rat liver at 10 mg/kg, po measured at 24 hrs by LC-MS/MS analysis; assay type: ADME, organism-based; settings: read-out: Ct
[32] = Toxicity in immune-competent Sprague-Dawley rat assessed as change in total bilirubin level at 1 to 10 mg/kg, po administered twice a week for 5 weeks; assay type: organism-based; settings: in vivo, 840 h, dose 1-10 mg/kg
[33] = Metabolic stability in rat liver microsome assessed as half life measured upto 60 mins in presence of NADPH by LC-MS/MS analysis; assay type: ADME; settings: liver microsomes
[34] = Drug distribution in Sprague-Dawley rat plasma at 3 mg/kg, po measured at 24 hrs by LC-MS/MS analysis; assay type: ADME, organism-based
[35] = Toxicity in immune-competent Sprague-Dawley rat assessed as change in platelet count at 1 to 10 mg/kg, po administered twice a week for 5 weeks; assay type: organism-based; settings: in vivo, 840 h, dose 1-10 mg/kg
[36] = Drug distribution in Sprague-Dawley rat spleen at 3 mg/kg, po measured at 6 hrs by LC-MS/MS analysis; assay type: ADME, organism-based; settings: read-out: Ct
[37] = Toxicity in immune-competent Sprague-Dawley rat assessed as change in red blood cells count at 1 to 10 mg/kg, po administered twice a week for 5 weeks; assay type: organism-based; settings: in vivo, 840 h, dose 1-10 mg/kg
[38] = Toxicity in immune-competent Sprague-Dawley rat assessed as change in lymphocyte at 1 to 10 mg/kg, po administered twice a week for 5 weeks; assay type: organism-based; settings: in vivo, 840 h, dose 1-10 mg/kg
[39] = Toxicity in immune-competent Sprague-Dawley rat assessed as change in alanine aminotransferase level at 1 to 10 mg/kg, po administered twice a week for 5 weeks; assay type: organism-based; settings: in vivo, 840 h, dose 1-10 mg/kg
[40] = Toxicity in immune-competent Sprague-Dawley rat assessed as change in monocyte at 1 to 10 mg/kg, po administered twice a week for 5 weeks; assay type: organism-based; settings: in vivo, 840 h, dose 1-10 mg/kg

- concentration at 6 h [1]: 127 ng/mL
- concentration at 1 h [4]: 1640 ng/mL
- concentration at 1 h [5]: 27.8 ng/g
- concentration at 6 h [6]: 26.4 ng/g
- concentration at 6 h [7]: 406 ng/g
- AUC at 24 h [9]: 4190 ng·h/mL
- half-life [10]: > 2 h
- DC50 [11]: 0.1 nM
- concentration at 24 h [13]: 61.1 ng/mL
- concentration at 6 h [14]: 27.4 ng/mL
- Stability [15]: Stable
- concentration at 24 h [16]: 12.7 ng/mL
- concentration at 1 h [17]: 246 ng/g
- concentration at 24 h [18]: 13.7 ng/mL
- remaining at 7 h [19]: < 10%
- concentration at 1 h [20]: 1990 ng/g
- fraction unbound [22]: 0.009
- half-life [25]: 1.9 h
- concentration at 1 h [26]: 3300 ng/mL
- concentration at 24 h [28]: 2.1 ng/g
- clearance [30]: 34.6 mL/min/kg
- concentration at 24 h [31]: 20.2 ng/g
- half-life [33]: 1.08 h
- concentration at 24 h [34]: 1.3 ng/mL
- concentration at 6 h [36]: 112 ng/g
SMILES: CC(=O)N1CCc2c(c(N3CCCc4cc(-c5cnn(C)c5)c(C(F)F)cc43)nn2[C@H]2CC[C@H](CN3Cc4cc5c(cc4C3)C(=O)N(C3CCC(=O)NC3=O)C5=O)CC2)C1 (stereo not given in full)
- Activity [2]: Non-Toxic
- Activity (VCaP [3]): 31%
- Activity (CWR22R [8]): Active
- Activity [12]: Non-Toxic
- inhibition in vivo at 3 mg/kg (VCaP [21]): 57%
- Activity (CWR22R [23]): Active
- Activity [24]: < 7%
- inhibition in vivo at 0.3 mg/kg (VCaP [27]): 84%
- Activity [29]: Non-Toxic
- Activity [32]: Non-Toxic
- Activity [35]: Non-Toxic
- Activity [37]: Non-Toxic
- Activity [38]: Non-Toxic
- Activity [39]: Non-Toxic
- Activity [40]: Non-Toxic
